Counter-ions that a name gives are not always drawn. Like-named read-outs stand apart in the source and are kept apart here.
Assays:
GRK2 [1] = biological target: T1, GRK2 (Homo sapiens, UniProt P25098); experiment: GRK2 Inhibition Assay (TR-FRET, Example 1); type: biochemical
T1 sequence (P25098 1-689): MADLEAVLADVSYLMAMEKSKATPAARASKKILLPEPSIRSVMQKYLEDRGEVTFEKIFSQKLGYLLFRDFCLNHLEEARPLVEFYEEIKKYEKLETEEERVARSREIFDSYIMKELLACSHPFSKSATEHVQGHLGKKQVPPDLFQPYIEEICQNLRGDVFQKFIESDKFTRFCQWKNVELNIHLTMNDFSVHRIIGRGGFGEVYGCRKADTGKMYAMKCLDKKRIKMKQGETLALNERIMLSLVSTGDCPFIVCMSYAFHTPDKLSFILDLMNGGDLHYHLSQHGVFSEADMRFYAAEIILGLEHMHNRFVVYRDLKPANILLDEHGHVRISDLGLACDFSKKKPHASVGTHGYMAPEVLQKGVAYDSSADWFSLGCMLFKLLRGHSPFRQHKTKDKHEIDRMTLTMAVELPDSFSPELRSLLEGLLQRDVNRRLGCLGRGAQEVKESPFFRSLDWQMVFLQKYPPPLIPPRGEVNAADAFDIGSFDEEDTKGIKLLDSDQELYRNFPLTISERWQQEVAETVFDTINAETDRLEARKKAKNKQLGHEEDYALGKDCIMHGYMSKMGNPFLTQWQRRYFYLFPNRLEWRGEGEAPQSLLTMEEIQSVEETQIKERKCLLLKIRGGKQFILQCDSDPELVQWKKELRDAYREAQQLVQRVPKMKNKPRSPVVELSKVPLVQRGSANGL
Procedure, shortened: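 GRK2 (1 nM) pre-incubated 30 min RT with compounds in HEPES/MgCl2/DTT/Tween-20/EGTA buffer, then reacted 90 min RT with 7 μM ATP and 50 nM ULight-TopoIIα substrate. Stopped with EDTA plus Eu anti-TopoIIα antibody; TR-FRET read after 60 min.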

PAXF1657 KO Clone #4 = experiment: 7-day cellular proliferation assay (CellTiter-Glo), PAXF1657 KO Clone #4; type: cell-based
Procedure, shortened: (§1)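 Read-out is CellTiter-Glo luminescence after 7 days of continuous exposure, with compound re-dosed in fresh medium at day 3. Cells were seeded at 500/well and treated across 30 μM-0.0002 μM (10 points, 0.3% DMSO); baseline viability plates were read at compound addition.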

PAXF1657 EV = experiment: 7-day cellular proliferation assay (CellTiter-Glo), PAXF1657 EV; type: cell-based
Procedure, shortened: as §1

GRK2 [2] = biological target: T1, GRK2; experiment: GRK2 Degradation Assay and Western Blot in PAXF1657 cells; type: cell-based; design: endogenous in cells; host or cells: PAXF1657; details: for DC50: PAXF1657, 24 h, read-out: Degradation Assay - Full Dose Response: IC50 (uM) [cell line: PAXF1657, time point: 24 h]
Procedure, shortened: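 PAXF1657 cells grown to 70% confluency, then treated with compounds at 0–10 μM for 6 to 24 h at 37 °C. Lysates in PBS with 1% NP40 run on SDS-PAGE. GRK2 protein detected by western blot with β-actin as loading reference, using ECL chemiluminescence.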

[3] = Table 4, Example 1 assay, read-out: Enzymatic GRK2 IC50: Av IC50 GRK2
[4] = proliferation, read-out: GeoMean IC50 (uM) PAXF1657 KO Clone #4
[5] = proliferation, read-out: GeoMean IC50 (UM) PAXF1657 EV
[6] = Conc 0.3 uM, read-out: Degradation Assay - 3 point: Degradation (%)
[7] = Conc 1 uM, read-out: Degradation Assay - 3 point: Degradation (%)
[8] = Conc 3 uM, read-out: Degradation Assay - 3 point: Degradation (%)
[9] = TR-FRET, 7 μM ATP, read-out: Enzymatic GRK2 Assay: IC50 (nM) (Example 1)
[10] = 168 h, 7-day, read-out: 7-day proliferation assay: IC50 GeoMean (uM) [Cell Line: PAXF1657 KO Clone #4]
[11] = 168 h, 7-day, read-out: 7-day proliferation assay: IC50 GeoMean (uM) [Cell Line: PAXF1657 EV]
[12] = 0.3 uM, PAXF1657 EV, 24 hrs, read-out: % GRK2 degradation at 0.3 uM in PAXF1657 EV (24 hrs)
[13] = 1 uM, PAXF1657 EV, 24 hrs, read-out: % GRK2 degradation at 1 uM in PAXF1657 EV (24 hrs)
[14] = 3 uM, PAXF1657 EV, 24 hrs, read-out: % GRK2 degradation at 3 uM in PAXF1657 EV (24 hrs)

Structure (SMILES) | IC50 (GRK2 [1]; [3]) [nM] | inhibition at 0.3 µM (GRK2 [2]; [6]) [%] | inhibition at 1 µM (GRK2 [2]; [7]) [%] | inhibition at 3 µM (GRK2 [2]; [8]) [%] | DC50 (GRK2 [2]) [µM] | IC50 (GRK2 [1]; [9]) [nM] | inhibition at 0.3 µM (GRK2 [2]; [12]) [%] | inhibition at 1 µM (GRK2 [2]; [13]) [%] | inhibition at 3 µM (GRK2 [2]; [14]) [%] | % GRK2 degradation at 0.1 uM in PAXF1657 EV (24 hrs) (GRK2 [2]; 0.1 uM, PAXF1657 EV, 24 hrs) [%] | % GRK2 degradation at 10 uM in PAXF1657 EV (24 hrs) (GRK2 [2]; 10 uM, PAXF1657 EV, 24 hrs) [%] | GRK2 degradation, dose dependence (FIGS. 1A-1D) (GRK2 [2]; 24-hour treatment in PAXF1657 cells) | IC50 (PAXF1657 KO Clone #4; [4]) [µM] | IC50 (PAXF1657 EV; [5]) [µM] | IC50 (PAXF1657 KO Clone #4; [10]) [µM] | IC50 (PAXF1657 EV; [11]) [µM]
C[C@@H](NC(=O)c1cccc(NCc2nnc(-c3ccncn3)n2C)c1)c1cccc(OCCCCCCOCCOCCN2CCN(c3cc4c(cc3F)C(=O)N(C3CCC(=O)NC3=O)C4=O)CC2)c1 (stereo partly drawn) [Compound D140, N-((1R)-1-(3-(6-(2-(2-(4-(2-(2,6-dioxopiperidin-3-yl)-6-fluoro-1,3-dioxoisoindolin-5-yl)piperazin-1-yl)ethoxy)ethoxy)hexyloxy)phenyl)ethyl)-3-((4-methyl-5-(pyrimidin-4-yl)-4H-1,2,4-triazol-3-yl)methylamino)benzamide] | 20.9 | 88 | 92 | 93 | 0.12 | – | – | – | – | – | – | – | 19.9 | 0.78 | – | –
C[C@@H](NC(=O)c1cccc(NCc2nnc(-c3ccncn3)n2C)c1)c1cccc(OCCCCCCOCCOCCOCCCCCC(=O)Nc2cccc3c2CN(C2CCC(=O)NC2=O)C3=O)c1 (stereo partly drawn) [Compound D57, N-((1R)-1-(3-((6-(2-(2-((6-((2-(2,6-dioxopiperidin-3-yl)-1-oxoisoindolin-4-yl)amino)-6-oxohexyl)oxy)ethoxy)ethoxy)hexyl)oxy)phenyl)ethyl)-3-(((4-methyl-5-(pyrimidin-4-yl)-4H-1,2,4-triazol-3-yl)methyl)amino)benzamide] | – | – | – | – | – | < 100 | 70 | 82 | 85 | – | – | – | – | – | > 10 | > 10
Cc1ncsc1-c1ccc([C@H](C)NC(=O)[C@@H]2C[C@@H](O)CN2C(=O)[C@@H](NC(=O)CCCCCOCCOCCOCCCCCCOc2cccc(CNC(=O)c3cccc(NCc4nnc(-c5ccncn5)n4C)c3)c2)C(C)(C)C)cc1 [Compound D90] | – | – | – | – | – | < 100 | – | 23 | 20 | – | – | – | – | – | > 10 | 1 to 10
C[C@@H](NC(=O)c1cccc(NCc2nnc(-c3ccncn3)n2C)c1)c1cccc(C(=O)N2CCC(CN3CCN(c4ccc5c(c4)CN(C4CCC(=O)NC4=O)C5=O)CC3)CC2)c1 (stereo partly drawn) [Compound D122, N-((1R)-1-(3-(4-((4-(2-(2,6-dioxopiperidin-3-yl)-1-oxoisoindolin-5-yl)piperazin-1-yl)methyl)piperidine-1-carbonyl)phenyl)ethyl)-3-((4-methyl-5-(pyrimidin-4-yl)-4H-1,2,4-triazol-3-yl)methylamino)benzamide hydrochloride] | 12.3 | 84.9 | 90.6 | 92.5 | – | – | – | – | – | – | – | – | > 30 | 0.1 | – | –
C[C@@H](NC(=O)c1cccc(NCc2nnc(-c3ccncn3)n2C)c1)c1cccc(OCCCCCOCCCOCCNc2ccc3c(c2)CN(C2CCC(=O)NC2=O)C3=O)c1 (stereo partly drawn) [Compound D171, N-((1R)-1-(3-(5-(3-(2-(2-(2,6-dioxopiperidin-3-yl)-1-oxoisoindolin-5-ylamino)ethoxy)propoxy)pentyloxy)phenyl)ethyl)-3-((4-methyl-5-(pyrimidin-4-yl)-4H-1,2,4-triazol-3-yl)methylamino)benzamide] | 28.7 | 89.7 | 90.6 | 76.2 | – | – | – | – | – | – | – | – | > 30 | 0.09 | – | –

Further lines, with some results ahead:

IC50 (GRK2 [1]; [3]) [nM] | inhibition at 0.3 µM (GRK2 [2]; [6]) [%] | inhibition at 1 µM (GRK2 [2]; [7]) [%] | inhibition at 3 µM (GRK2 [2]; [8]) [%] | DC50 (GRK2 [2]) [µM] | IC50 (GRK2 [1]; [9]) [nM] | inhibition at 0.3 µM (GRK2 [2]; [12]) [%] | inhibition at 1 µM (GRK2 [2]; [13]) [%] | inhibition at 3 µM (GRK2 [2]; [14]) [%] | % GRK2 degradation at 0.1 uM in PAXF1657 EV (24 hrs) (GRK2 [2]; 0.1 uM, PAXF1657 EV, 24 hrs) [%] | % GRK2 degradation at 10 uM in PAXF1657 EV (24 hrs) (GRK2 [2]; 10 uM, PAXF1657 EV, 24 hrs) [%] | GRK2 degradation, dose dependence (FIGS. 1A-1D) (GRK2 [2]; 24-hour treatment in PAXF1657 cells) | Structure (SMILES) | IC50 (PAXF1657 KO Clone #4; [4]) [µM] | IC50 (PAXF1657 EV; [5]) [µM] | IC50 (PAXF1657 KO Clone #4; [10]) [µM] | IC50 (PAXF1657 EV; [11]) [µM]
14.5 | 23.6 | 39.4 | 24 | – | – | – | – | – | – | – | – | Cc1ncsc1-c1ccc([C@H](C)NC(=O)[C@@H]2C[C@@H](O)CN2C(=O)[C@@H](NC(=O)COCCCOCCCCCOc2cccc([C@@H](C)NC(=O)c3cccc(NCc4nnc(-c5ccncn5)n4C)c3)c2)C(C)(C)C)cc1 [Compound D169] | 8.15 | 0.12 | – | –
19.5 | 89 | 88 | 67 | 8.71 | – | – | – | – | – | – | – | C[C@@H](NC(=O)c1cccc(NCc2nnc(-c3ccncn3)n2C)c1)c1cccc(OCCCCCCOCCOCCNc2ccc3c(c2)CN(C2CCC(=O)NC2=O)C3=O)c1 (stereo partly drawn) [Compound D141, N-((1R)-1-(3-(6-(2-(2-(2-(2,6-dioxopiperidin-3-yl)-1-oxoisoindolin-5-ylamino)ethoxy)ethoxy)hexyloxy)phenyl)ethyl)-3-((4-methyl-5-(pyrimidin-4-yl)-4H-1,2,4-triazol-3-yl)methylamino)benzamide] | 1.66 | 0.17 | – | –
14.1 | 46.7 | 21.2 | 0.218 | 2.57 | – | – | – | – | – | – | – | Cc1ncsc1-c1ccc(CNC(=O)[C@@H]2C[C@@H](O)CN2C(=O)[C@@H](NC(=O)CCCOCCOCCOCCCCCCCCOc2ccc([C@@H](C)NC(=O)c3cccc(NCc4nnc(-c5ccncn5)n4C)c3)cc2)C(C)(C)C)cc1 [Compound D148] | 8.31 | 0.1 | – | –
– | – | – | – | – | < 100 | – | 70 | 73 | – | – | – | CN[C@@H](C)C(=O)N[C@H](C(=O)N1CCC[C@H]1c1nc(C(=O)c2cccc(OCc3cn(CCCCCCOc4cccc(CNC(=O)c5cccc(NCc6nnc(-c7ccncn7)n6C)c5)c4)nn3)c2)cs1)C1CCCCC1 [Compound D102, N-(3-((6-(4-((3-(2-((S)-1-((S)-2-cyclohexyl-2-((S)-2-(methylamino)propanamido)acetyl)pyrrolidin-2-yl)thiazole-4-carbonyl)phenoxy)methyl)-1H-1,2,3-triazol-1-yl)hexyl)oxy)benzyl)-3-(((4-methyl-5-(pyrimidin-4-yl)-4H-1,2,4-triazol-3-yl)methyl)amino)benzamide] | – | – | 1 to 10 | < 1
– | – | – | – | – | < 100 | – | 16 | 24 | – | – | – | Cc1ncsc1-c1ccc(CNC(=O)[C@@H]2C[C@@H](O)CN2C(=O)[C@@H](NC(=O)CCCc2cn(CCCCCCOc3cccc(CNC(=O)c4cccc(NCc5nnc(-c6ccncn6)n5C)c4)c3)nn2)C(C)(C)C)cc1 [Compound D86] | – | – | > 10 | > 10
104 | -7.47 | -8.22 | -15.9 | – | – | – | – | – | – | – | – | C[C@@H](NC(=O)c1cccc(NCc2nnc(-c3ccncn3)n2C)c1)c1cccc(C(=O)N2CC(N3CCN(c4ccc5c(c4)CN(C4CCC(=O)NC4=O)C5=O)CC3)C2)c1 (stereo partly drawn) [Compound D172] | > 30 | 14.1 | – | –
– | – | – | – | – | < 100 | 62 | 79 | 83 | 26 | 77 | Dose dependent | Cn1c(CNc2cccc(C(=O)NCc3cccc(OCCCCCOCCCOCC(=O)Nc4cccc5c4CN(C4CCC(=O)NC4=O)C5=O)c3)c2)nnc1-c1ccncn1 (stereo not drawn) [Compound D64, N-(3-((5-(3-(2-((2-(2,6-dioxopiperidin-3-yl)-1-oxoisoindolin-4-yl)amino)-2-oxoethoxy)propoxy)pentyl)oxy)benzyl)-3-(((4-methyl-5-(pyrimidin-4-yl)-4H-1,2,4-triazol-3-yl)methyl)amino)benzamide] | – | – | > 10 | > 10
